From patent US11591300B2, “Oxazole containing compounds as activators of IDO1 and AhR” (The Brigham and Women's Hospital, Inc., priority 2017, dated 2023)
One block for each compound: values may come before it.

How the values were obtained:
[1] = test system: MODE-K cells; test: CD1d-restricted IL-10 production in MODE-K:NKT cell hybridoma co-culture; assay type: cell-based, mouse; conditions: for effect of the supplement on IEC responses to oxazolone (CD1d-restricted IL-10 production): tryptophan-deficient media, oxazolone stimulation
[2] = test system: MODE-K cells; test: Relative transcript abundance of target genes in MODE-K cells conditioned with compounds; conditions: for Mttp transcripts / Ido1 transcripts: MODE-K cells conditioned with compound, normalized to β-actin
Excerpt: 4-ethoxymethylene-2-phenyl-2-oxazol-5-one, (referred to as oxazolone, FIG. 1A) has been widely utilized in models of contact hypersensitivity and when applied to the mucosa has been proposed to cause colitis through its properties as a hapten (Gorbachev and Fairchild 2001). However to date there is limited evidence for hapten-specific antibody production or responses following topical oxazolone sensitization or hapten modified autologous proteins or luminal antigens identified at mucosal sites (Singleton et al. 2016, Yanaba et al. 2008, Wirtz et al. 2007). […] It was then determined whether oxazolone could affect the expression of these transcripts in the intestinal epithelium in a cell intrinsic manner by directly stimulating an immortalized intestinal epithelial cell line (IEC) derived from mouse small intestine, MODE-K, with oxazolone.
To test this, a systematic in vitro system was devised to assess transcriptional and CD1d-restricted responses in IECs in response to stimulation with dietary OxC structures, including 2,4,5-trimethyl-2,5-dihydro-1,3-oxazole (referred to as TMO, FIG. 1A) found in coffee, peanuts, meats and utilized as a food additive, which lacks the 2-phenyl ring, 5-ketone, and 4-ethoxymethylene present in oxazolone (Vitzthum et al. 1975, Stoffesima et al. 1968, Lee et al. 1981, Chang et al. 1968, Ho and Hartman 1968).

[3] = test system: MODE-K cells; test: Surface CD1d loaded with α-GC (L363 antibody staining) in MODE-K cells; assay type: cell-based, mouse
Excerpt: In light of the decreased MTP expression observed in oxazolone treated IECs (FIG. 1B) and given that MTP loss alters the ability of CD1d to acquire exogenous antigens, such as α-GC, and CD1d elicited IL-10 responses by epithelial cells (Dougan et al. 2005, Dougan et al. 2007, Zeissig et al 2017, Sagiv et al. 2007, Brozovic et al. 2004, Olszak et al. 2014), it was investigated whether CD1d expression and lipid loading on oxazolone conditioned IECs.

[4] = test system: C57Bl/6 mice; test: Intra-rectal administration, colonic inflammation in vivo; design: species or system mouse
Description: It was tested whether a dietary sourced minimal oxazole structure was sufficient to induce intestinal inflammation in vivo. […] To confirm this, the ability of oxazolone skin pre-sensitization to affect the responses to rectal challenge with TMO and vice-versa (FIG. 9D).
Next, it was tested whether B17 microcin derivatives could induce intestinal inflammation in vivo. Therefore, adequate quantities of a minimal B17 derivative (termed frag-oz, FIG. 2D) were synthesized to perform in vivo experiments and challenged animals via intra-rectal administration. […] These studies identify an oxazole containing microbial mimic that promotes CD1d-dependent intestinal inflammation independent of its classical anti-microbial activity.
These studies reveal a novel role for epithelial derived AhR signals in promoting mucosal inflammation when exposed to OxC.

[5] = target: T1, aryl hydrocarbon receptor (AhR) (Mus musculus, UniProt P30561); test: AhR firefly luciferase reporter in IECs; assay type: cell-based; conditions: compared to vehicle or 1,2,4-trimethylcyclopentane
T1 construct: IECs were transfected with an AhR firefly luciferase reporter; endogenous in cells; host or cells: MODE-K (mouse intestinal epithelial cell line)
T1 sequence (P30561 10-848): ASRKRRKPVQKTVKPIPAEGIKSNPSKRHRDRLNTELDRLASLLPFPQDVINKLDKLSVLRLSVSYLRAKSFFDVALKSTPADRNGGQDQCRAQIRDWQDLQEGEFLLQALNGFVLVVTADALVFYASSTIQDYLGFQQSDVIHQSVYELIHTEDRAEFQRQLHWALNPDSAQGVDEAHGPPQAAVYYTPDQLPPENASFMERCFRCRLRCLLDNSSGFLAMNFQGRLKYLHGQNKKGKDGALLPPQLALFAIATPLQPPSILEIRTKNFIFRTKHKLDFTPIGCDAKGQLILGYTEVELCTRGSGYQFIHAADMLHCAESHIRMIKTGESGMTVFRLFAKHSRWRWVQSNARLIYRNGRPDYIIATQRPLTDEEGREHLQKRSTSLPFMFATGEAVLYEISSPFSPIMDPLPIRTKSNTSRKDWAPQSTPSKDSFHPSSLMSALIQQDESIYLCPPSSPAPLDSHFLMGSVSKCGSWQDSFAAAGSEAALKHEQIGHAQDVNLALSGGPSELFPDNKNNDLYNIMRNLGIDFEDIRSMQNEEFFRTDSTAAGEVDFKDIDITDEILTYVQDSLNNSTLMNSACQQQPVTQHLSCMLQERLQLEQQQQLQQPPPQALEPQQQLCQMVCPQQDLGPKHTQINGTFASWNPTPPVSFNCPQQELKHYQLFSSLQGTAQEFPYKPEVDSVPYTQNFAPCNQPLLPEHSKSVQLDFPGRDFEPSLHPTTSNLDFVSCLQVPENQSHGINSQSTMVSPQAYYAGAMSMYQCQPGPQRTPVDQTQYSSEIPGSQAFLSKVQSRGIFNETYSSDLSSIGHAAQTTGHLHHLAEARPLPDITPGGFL

[6] = target: recombinant IDO1 (Homo sapiens, UniProt P14902); test: Recombinant IDO1 conversion of L-tryptophan to formyl-kyneurenine; assay type: biochemical; conditions: compared to control (TMC) or vehicle
Sequence of recombinant IDO1 (P14902 whole entry, species assumed): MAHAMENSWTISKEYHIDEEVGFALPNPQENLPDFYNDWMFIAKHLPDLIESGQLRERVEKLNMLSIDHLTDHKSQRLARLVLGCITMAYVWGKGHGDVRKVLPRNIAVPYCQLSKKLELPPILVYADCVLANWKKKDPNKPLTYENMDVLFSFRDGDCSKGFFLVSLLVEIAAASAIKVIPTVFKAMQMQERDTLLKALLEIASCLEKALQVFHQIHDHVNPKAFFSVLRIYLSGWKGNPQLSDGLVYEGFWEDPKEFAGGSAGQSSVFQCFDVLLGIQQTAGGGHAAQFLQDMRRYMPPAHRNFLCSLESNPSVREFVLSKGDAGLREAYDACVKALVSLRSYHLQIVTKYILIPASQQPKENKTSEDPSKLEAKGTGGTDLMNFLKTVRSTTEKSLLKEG

[7] = test system: IECs; test: LC-MS of deuterated L-trp (D5-Trp) metabolites in IEC lysates; assay type: cell-based; conditions: within 6 hours of exposure
Description: IDO1 is a rate-limiting enzyme involved in tryptophan catabolism that generates formyl-kyneurenine which can be further metabolized into a variety of AhR agonists (Higuchi and Hayaishi Arch Biochem Biophys 1967, Nguyen and Bradfield 2008, Zelante et al. 2014). […] To specifically identify these tryptophan derived products, IECs were cultured with deuterated L-trp (D5-Trp) and performed high performance liquid chromatography mass spectrometry (LC-MS) on lysates stimulated with oxazolone, TMO, frag-oz or TMC control (FIG. 5C). […] Taken together these latter studies are consistent with a model in which exposure of IECs to oxazole containing compounds leads to the activation of IDO1 and generation of tryptophan-derived metabolites that induce the AhR pathway to downregulate CD1d-restricted responses associated with the production of IL-10 (FIG. 6).

[8] = Wambaugh et al. 2014; cited from earlier work
[9] = test system: primary hepatocytes; test: IL-10 production from primary hepatocytes co-cultured with 24.7 iNKT hybridoma; conditions: response to iNKT cells in the presence of α-GC
[10] = test system: IECs; test: In vitro system to assess transcriptional and CD1d-restricted responses in IECs (FIG. 13 summary); assay type: cell-based
[11] = target: T2, AhR (Homo sapiens, UniProt P35869); conditions: Wambaugh et al. 2014, Dierickx 2004; cited from earlier work
T2 sequence (P35869 11-848): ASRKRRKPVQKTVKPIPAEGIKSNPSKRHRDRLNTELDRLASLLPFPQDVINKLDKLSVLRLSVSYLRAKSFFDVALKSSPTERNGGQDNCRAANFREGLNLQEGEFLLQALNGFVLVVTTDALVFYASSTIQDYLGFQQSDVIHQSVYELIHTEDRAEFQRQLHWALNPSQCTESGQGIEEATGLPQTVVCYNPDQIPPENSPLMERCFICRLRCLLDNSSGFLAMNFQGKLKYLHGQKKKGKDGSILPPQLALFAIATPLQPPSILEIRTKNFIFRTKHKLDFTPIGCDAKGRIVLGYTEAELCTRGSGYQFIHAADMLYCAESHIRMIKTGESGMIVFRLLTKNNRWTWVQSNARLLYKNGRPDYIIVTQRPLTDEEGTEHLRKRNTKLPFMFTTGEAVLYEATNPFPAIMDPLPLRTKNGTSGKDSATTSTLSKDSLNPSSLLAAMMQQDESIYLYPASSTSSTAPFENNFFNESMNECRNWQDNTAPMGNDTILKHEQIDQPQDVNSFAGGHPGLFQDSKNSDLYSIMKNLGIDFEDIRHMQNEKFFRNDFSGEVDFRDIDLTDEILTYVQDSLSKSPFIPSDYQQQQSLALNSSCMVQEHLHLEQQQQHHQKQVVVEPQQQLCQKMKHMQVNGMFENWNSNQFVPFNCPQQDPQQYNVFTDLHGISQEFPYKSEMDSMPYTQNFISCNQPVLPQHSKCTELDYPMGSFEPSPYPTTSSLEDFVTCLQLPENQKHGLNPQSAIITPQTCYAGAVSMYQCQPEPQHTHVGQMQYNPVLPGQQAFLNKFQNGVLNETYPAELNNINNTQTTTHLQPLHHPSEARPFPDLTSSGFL

[12] = MODE-K pre-conditioned with compound, loaded with α-GC, co-culture with 24.7 iNKT hybridoma
[13] = supplement alone or in conjunction with TMC stimulation
[14] = IEC enriched colonic fractions after intra-rectal administration
[15] = intra-rectal administration, wildtype

Compound: Cn1cc(C[C@@H](N)C(=O)O)c2ccccc21 (racemic) [DL-methyl tryptophan, reference compound]
effect of the supplement on IEC responses to oxazolone (CD1d-restricted IL-10 production) [1]: did not restore suppression

Compound: CC1=NCCC1 [1-MP, 2-methyl-1-pyrroline, reference compound]
Cyp1a1 transcripts [2]: did not elicit any transcriptional changes
Mttp transcripts [2]: did not elicit any transcriptional changes

Compound: COC(=O)c1csc(C(=O)c2c[nH]c3ccccc23)n1 [ITE, 2-(H-Indol-3-carbonyl)-4-thiazolecarboxylic acid methyl ester, reference compound]
Mttp transcripts [2]: did not modulate
CD1d-restricted IL-10 production [1, 12]: did not modulate

Compound: N[C@@H](Cc1c[nH]c2ccccc12)C(=O)O [L-Trp, L-tryptophan, reference compound]
CD1d-restricted IL-10 production [1, 13]: had no effect
effect of the supplement on IEC responses to oxazolone (CD1d-restricted IL-10 production) [1]: restored IEC responses to oxazolone

Compound: CC1CC(C)C(C)C1 (stereo not shown) [TMC, 1,2,4-trimethyl cyclopentane, reference compound]
Cyp1a1 transcripts [2]: did not elicit any transcriptional changes
Mttp transcripts [2]: did not elicit any transcriptional changes

ability of IDO1 to convert tryptophan to formyl-kyneurenine [6]: enhanced
compound induced inhibition of IL-10 production in hepatocytes from Ahr−/− mice [9]: resistance
Compound: CC1=NC(C)OC1C (stereo not shown) [TMO, 2,4,5-trimethyl-2,5-dihydro-1,3-oxazole]
Ido1 transcripts [2]: induced expression of these genes in vitro and in vivo
Mttp transcripts [2]: suppressed
compound induced inhibition of CD1d-restricted IL-10 production when AhR expression is silenced ([1]; AhR siRNA, IEC:iNKT cell co-cultures): reversed
CD1d-restricted IL-10 production ([1]; IECs cultured in tryptophan-deficient media): no longer attenuated
CD1d-restricted IL-10 production [1, 12]: limited
IL-10 production ([1]; tryptophan-deficient conditions supplemented with kyneurenic acid): decreased IL-10 production
decrease of IL-10 production when AhR was silenced ([1]; tryptophan-deficient conditions supplemented with kyneurenic acid, AhR siRNA): reduced when AhR was silenced
CD1d-restricted IL-10 production ([1]; tryptophan-deficient media supplemented with exogenous L-tryptophan): attenuation of CD1d-restricted IL-10 production
compound induced reduction of cell surface CD1d lipid antigen loading when AhR expression is silenced ([3]; AhR siRNA): reversed
loading of α-GC on CD1d at the cell surface (L363 staining) ([3]; MODE-K cells conditioned with compound): decreased cell surface staining
Cyp1a1 transcripts in IEC in vivo [4, 14]: induction of cyp1a1
Mttp transcripts in IEC in vivo [4, 14]: downregulation of Mttp
Th1 and Th2 cytokines (IL-13, IFN-γ) from colon explants [4, 15]: production of Th2 and Th1 cytokines including IL-13 and IFN-γ
colon length [4, 15]: colon shortening
histological pathology of the colon [4, 15]: histological pathology characterized by superficial inflammation of the gut wall, neutrophil accumulation and ulceration of the epithelial layer of the colon
weight loss [4, 15]: increased weight loss
clinical symptoms, pathology, inflammation in CD1d-deficient animals ([4]; intra-rectal challenge, CD1d-deficient (KO) vs WT): no evidence of clinical symptoms or pathology
effect of skin pre-sensitization with the other compound (oxazolone or TMO) on rectal responses ([4]; topical sensitization followed by intra-rectal challenge): did not affect
AhR transcriptional activity [5]: induced robust AhR transcriptional activity
metabolite that D5-Trp was further metabolized to upon stimulation [7]: xanthurenic acid
detection in human urine [8]: detected in human urine

Compound: O=C(O)c1cc(=O)c2ccccc2[nH]1 [kyneurenic acid, reference compound]
CD1d-restricted IL-10 production [1, 13]: had no effect

Compound: C=CC1(C)OC(=O)N(c2cc(Cl)cc(Cl)c2)C1=O (stereo not shown) [vinclozolin]
Cyp1a1 transcripts [2]: induced expression of these genes in vitro and in vivo
Ido1 transcripts [2]: induced expression of these genes in vitro and in vivo
transcriptional and CD1d-restricted epithelial responses relative to oxazolone stimulation [10]: phenocopied
AhR activation [11]: AhR activator
